In ChEMBL document CHEMBL1201862, “PubChem BioAssay data set” (2004):
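Grown in 96-well plates, cells were treated for 48 hours with each compound at five concentrations. Insufficient inhibition: endpoint recorded as highest concentration tested. GI50: concentration for 50% inhibition of growth.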 Calls of active or inactive are those of the source. Cut-off read from the data, not from the text of the source: active = GI50 up to about 1.1 µM and inactive = higher.

Tests used:
Assay in all cases: inhibition of tumour cell growth, NCI panel, 48 h
CAKI-1 = system: CAKI-1
KM12 = system: KM12
U-251 = system: U-251
HOP-62 = system: HOP-62
DLD-1 = system: DLD-1
SF-268 = system: SF-268
SK-MEL-28 = system: SK-MEL-28
NCI-H23 = system: NCI-H23
OVCAR-3 = system: OVCAR-3
NCI-H522 = system: NCI-H522
M14 = system: M14
ACHN = system: ACHN
SNB-75 = system: SNB-75
SR = system: SR

| SMILES | GI50 (CAKI-1) | GI50 (KM12) | GI50 (U-251) | GI50 (HOP-62) | GI50 (DLD-1) | GI50 (SF-268) | GI50 (SK-MEL-28) | GI50 (NCI-H23) | GI50 (OVCAR-3) | GI50 (NCI-H522) | GI50 (M14) | GI50 (ACHN) | GI50 (SNB-75) | GI50 (SR) |
| --- | --- | --- | --- | --- | --- | --- | --- | --- | --- | --- | --- | --- | --- | --- |
| CCNC(=O)O/N=C1\CCC2[C@@H]3CC=C4C[C@@H](OC(=O)NCC)CC[C@]4(C)C3CC[C@]12C (stereo partly drawn) | 1.88 µM (inactive) | 2.9 µM (inactive) | 2.09 µM (inactive) | 22.3 µM (inactive) | 6.71 µM (inactive) | 2.94 µM (inactive) | 3.19 µM (inactive) | 1.08 µM (active) | 2.21 µM (inactive) | 1.57 µM (inactive) | 1.31 µM (inactive) | 1.38 µM (inactive) | 2.69 µM (inactive) |  |
| C#CC1(O)CCC2C3CCc4cc(Oc5nc(F)nc(-c6c7ccccc7c7sc8ccccc8n67)n5)ccc4C3CC[C@@]21C (stereo partly drawn) | > 100 µM (inactive) | > 100 µM (inactive) | 75.7 µM (inactive) | > 100 µM (inactive) | > 100 µM (inactive) | > 100 µM (inactive) | > 100 µM (inactive) | 33.3 µM (inactive) | > 100 µM (inactive) | 14.4 µM (inactive) | 26.1 µM (inactive) | > 100 µM (inactive) | 22.1 µM (inactive) | 32.1 µM (inactive) |
| O=C(CC1(O)C(=O)Nc2ccccc21)c1cccc(O)c1 (stereo not drawn) | > 100 µM (inactive) |  |  | > 100 µM (inactive) | > 100 µM (inactive) | > 100 µM (inactive) | > 100 µM (inactive) | > 100 µM (inactive) | > 100 µM (inactive) | > 100 µM (inactive) | > 100 µM (inactive) | > 100 µM (inactive) | > 100 µM (inactive) |  |
| CCCOc1ccc(/C=C\c2cc(OC)c(OC)c(OC)c2)cc1 | 58.3 µM (inactive) | 28.4 µM (inactive) | 68.9 µM (inactive) | > 100 µM (inactive) | 87.7 µM (inactive) | > 100 µM (inactive) | 63.4 µM (inactive) |  | > 100 µM (inactive) | 13.2 µM (inactive) | 53.3 µM (inactive) | 73.3 µM (inactive) | 85.5 µM (inactive) |  |
| CCc1cccc(C)c1NC(=O)C(=O)Cc1nc2ccccc2s1 | > 100 µM (inactive) | > 100 µM (inactive) | > 100 µM (inactive) |  | > 100 µM (inactive) | > 100 µM (inactive) | > 100 µM (inactive) | > 100 µM (inactive) | > 100 µM (inactive) | > 100 µM (inactive) | > 100 µM (inactive) | > 100 µM (inactive) | > 100 µM (inactive) | > 100 µM (inactive) |
| COc1ccc2oc3c(OC)c(OC)c(OC)cc3c(=O)c2c1 | > 100 µM (inactive) |  | 71.6 µM (inactive) | 50.2 µM (inactive) | > 100 µM (inactive) | > 100 µM (inactive) | > 100 µM (inactive) | > 100 µM (inactive) |  | 21.8 µM (inactive) | > 100 µM (inactive) | > 100 µM (inactive) | 24.7 µM (inactive) |  |
| CN(Cc1ccccc1)C(=O)c1ccccc1C(=O)O | > 100 µM (inactive) | > 100 µM (inactive) | > 100 µM (inactive) |  | > 100 µM (inactive) | > 100 µM (inactive) |  | > 100 µM (inactive) | > 100 µM (inactive) | > 100 µM (inactive) | > 100 µM (inactive) | > 100 µM (inactive) | > 100 µM (inactive) | > 100 µM (inactive) |
| N[C@H]1C2C3CC4C5CC(C42)C1(c1ccccc1)C53 (stereo partly drawn) | > 100 µM (inactive) | > 100 µM (inactive) | > 100 µM (inactive) | > 100 µM (inactive) | > 100 µM (inactive) | > 100 µM (inactive) | > 100 µM (inactive) | > 100 µM (inactive) | > 100 µM (inactive) | > 100 µM (inactive) | > 100 µM (inactive) | > 100 µM (inactive) | > 100 µM (inactive) | > 100 µM (inactive) |
| COC1=CC(=O)C2[C@H]3Cc4ccccc4[C@H]3C2(C)C1=O (stereo partly drawn) | > 100 µM (inactive) | > 100 µM (inactive) | > 100 µM (inactive) | > 100 µM (inactive) | > 100 µM (inactive) | > 100 µM (inactive) | > 100 µM (inactive) | > 100 µM (inactive) | > 100 µM (inactive) | 68.4 µM (inactive) | > 100 µM (inactive) | > 100 µM (inactive) | 16.9 µM (inactive) | 70.3 µM (inactive) |
| COc1cc(C(=O)N[C@H]2CCc3cc(OC)c(OC)c(OC)c3-c3ccc(SC)c(=O)cc32)cc(OC)c1OC |  | 0.0025 µM (active) | 0.0116 µM (active) | 0.0121 µM (active) | 0.00731 µM (active) | 0.0218 µM (active) | 12.3 µM (inactive) | 0.00589 µM (active) | 0.00502 µM (active) | 0.00428 µM (active) | 0.00832 µM (active) | 0.136 µM (active) | 0.252 µM (active) | 0.0126 µM (active) |
| C/C(N)=[N+](/C)[O-] |  | > 100 µM (inactive) | > 100 µM (inactive) | > 100 µM (inactive) | 46.6 µM (inactive) | 46.3 µM (inactive) | 82.4 µM (inactive) | > 100 µM (inactive) | > 100 µM (inactive) | 72.6 µM (inactive) | > 100 µM (inactive) | 31.6 µM (inactive) | > 100 µM (inactive) | 23.8 µM (inactive) |
| COC(=O)[C@@H]1C[C@H](c2ccc(OC)c(OC)c2)OC1=O.COC(=O)[C@H]1C[C@H](c2ccc(OC)c(OC)c2)OC1=O | > 100 µM (inactive) | > 100 µM (inactive) | > 100 µM (inactive) | > 100 µM (inactive) | > 100 µM (inactive) | > 100 µM (inactive) | > 100 µM (inactive) | > 100 µM (inactive) | > 100 µM (inactive) | > 100 µM (inactive) | > 100 µM (inactive) | > 100 µM (inactive) | > 100 µM (inactive) | > 100 µM (inactive) |
| COC(=O)[C@@H]1c2[nH]c3ccccc3c2C[C@@H]2c3ccccc3NC(=O)[C@@H]21 | > 73.6 µM (inactive) | > 100 µM (inactive) | 15.4 µM (inactive) | 14.3 µM (inactive) | > 100 µM (inactive) | > 31.6 µM (inactive) | > 91 µM (inactive) | > 90.8 µM (inactive) | > 53.6 µM (inactive) | > 100 µM (inactive) | > 78.5 µM (inactive) | > 100 µM (inactive) | 12.7 µM (inactive) |  |
| C=Nc1ccc([N+](=O)[O-])cc1 | > 100 µM (inactive) | > 100 µM (inactive) | > 100 µM (inactive) |  | > 100 µM (inactive) | > 100 µM (inactive) | > 100 µM (inactive) | > 100 µM (inactive) | > 100 µM (inactive) | > 100 µM (inactive) | > 100 µM (inactive) | > 100 µM (inactive) | > 100 µM (inactive) | > 41.5 µM (inactive) |
| CC1=[N+]([O-])c2ccccc2C(=O)C1=O | > 100 µM (inactive) | > 100 µM (inactive) | 99.8 µM (inactive) | > 100 µM (inactive) | > 100 µM (inactive) | 42.2 µM (inactive) | > 100 µM (inactive) | 92.9 µM (inactive) | 29.2 µM (inactive) | 23.3 µM (inactive) | > 100 µM (inactive) | > 100 µM (inactive) | > 100 µM (inactive) |  |
